Results taken from patent publication US20060134779A1, “Modulation of cell intrinsic strain to control cell modulus, matrix synthesis, secretion, organization, material properties and remodeling of tissue engineered constructs” (priority 2004, published 2006).
“Also recorded” adds a separate entry of the source.

Assays:
[1] = system: gel matrix; assay: Gel matrix contraction in a culture system; assay type: cell-based
[2] = system: elastin; assay: Quantitative RT-PCR gene expression in BATs: elastin; assay type: cell-based, human
Protocol: (§1) Primary human tendon internal fibroblasts (HTIFs) were isolated from discarded human tendon tissue as described previously (Banes et al., J. Ortho Res., 6, 73-82, 1988). HTIFs from passage 2 to 4 were used in this study. BATs™ were fabricated at a cell density of 2 million cells/ml collagen gel suspension (Vitrogen). Cells were incubated at 37° C. for 24 h before addition of 100 pM IL-1β and inhibitors. BAT™ images were recorded with a scanner and automated imaging software, ScanFlex™ (Flexcell International Corp.). Medium was refreshed every 24 h. On day 5, BATs™ were collected, total RNA extracted with an RNeasy mini kit (QIAGen), cDNA synthesized with SuperScriptII (Invitrogen) and quantitative PCR carried out using a quantitative PCR kit from Ambion. The PCR products were separated on 2% agarose gels and the bands were quantitated in Photoshop. The elasticity of BATs™ was tested on day 5. BATs™ were subjected to a maximum stretch (20% elongation, 1 Hz for 1 h) and the BAT™ images were recorded for 24 h after stretch.

[3] = system: human tendon internal fibroblast (HTIF)-populated bioartificial tendons (BATs); assay: Contraction of HTIF-populated BATs (scanner imaging); assay type: cell-based; conditions: 100 pM IL-1β, 24 h post addition
Protocol: as §1

[4] = system: human tendon internal fibroblast (HTIF)-populated bioartificial tendons (BATs); assay: Elasticity of BATs: length recovery after maximum stretch; assay type: cell-based; conditions: 100 pM IL-1β
Description: In order to find a better therapeutic method for tendon/ligament repair and/or replacement, several in vitro models for engineered tendon have been developed recently (Awad et al., J. Biomed. Mater Res., 51(2), 233-240, 2000). One of them is a BioArtificial Tendon (BAT™) model system utilizing tenocyte-populated molded collagen gels (Awad et al., J. Biomed. Mater Res., 51(2), 233-240, 2000). This 3D BAT™ system allows the testing of tenocyte responses to drugs, cytokines and mechanical loading but is too weak to replace conventional grafts materials. In an attempt to modulate the material properties of the cell-gel composite, the influence of IL-1β on the elasticity of human tendon internal fibroblast (HTIF)-populated bioartificial tendons (BATs™) was investigated. IL-1β has been reported to increase the expression of matrix metalloproteinases (MMPs) and elastin. It was hypothesized that IL-1 might increase the elasticity of BATs™ by up-regulating the expression of elastin and down-regulating matrix protein (Collagen type I) expression. Gene expression was quantified with quantitative RT-PCR. The elasticity of BATs™ was determined by length recovery after stretch. The influence of IL-1β on the actin cytoskeleton and integrin attachment to matrix in BATs™ also was tested +/−cytochalasin D or GRGDTP, respectively.
as §1, with “BATs™ were fabricated at a cell density of 2 million cells/ml collagen gel suspension (Vitrogen). Cells were incubated at 37° C. for 24 h before addition of 100 pM IL-1β and inhibitors.” left out, “Medium was refreshed every 24 h.” left out, “The elasticity of BATs™ was tested on day 5.” left out

[5] = system: human tendon internal fibroblasts (HTIFs); assay: Young's modulus of HTIFs by micropipette aspiration; assay type: cell-based; conditions: young and adult patients (FIG. 13)
Protocol: (§2) Primary HTIFs were isolated after surgery from discarded human tendon tissue as described previously (Banes et al., J. Ortho Res., 6, 73-82, 1988). HTIFs from passage 2 to 4 were used in this study. HTIFs were allowed to attach and spread for 24 h before addition of 100 pM IL-1β. Medium was refreshed every 24 h. On day 5, cells were collected for cell modulus measurement and gene expression analysis. Young's modulus of HTIFs was measured by aspirating a cell into the bore of a calibrated micropipette with a calibrated vacuum source. The cell-aspiration process was videotaped for subsequent data analysis to calculate the pipette bore size, the steady state pressure required to aspirate a segment of a cell into the pipette bore and the time constant for aspiration. Cytoskeleton change was monitored by rhodamine-phalloidin staining. The expression levels of β-actin was determined by quantitative RT-PCR. Total RNA was extracted with an RNeasy mini kit (QIAGen), cDNA was synthesized with SuperScriptII (Invitrogen) and quantitative PCR was carried out using 18S rRNA as an internal control (Ambion). The PCR products were separated on 2% agarose gels and pixel intensity of the bands was quantitated in Photoshop.

[6] = system: Collagen type I; assay: Quantitative RT-PCR gene expression in BATs: Collagen type I; assay type: cell-based, human; conditions: 100 pM IL-1β, day 5
Protocol: as §1

[7] = system: human tendon internal fibroblast (HTIF) populated bioartificial tendons (BATs); assay: Material properties (modulus) of HTIF-populated BATs; assay type: cell-based
[8] = system: MMPs 1, 2, 3; assay: Quantitative RT-PCR gene expression in BATs: MMPs; assay type: cell-based, human; conditions: 100 pM IL-1β, day 5
Protocol: as §1

[9] = system: β-actin; assay: β-actin expression by quantitative RT-PCR in HTIFs; assay type: cell-based, human; conditions: for reduction of the message of β-actin: 24 h post addition
Protocol: as §2, with “On day 5, cells were collected for cell modulus measurement and gene expression analysis.” left out

[10] = system: β-actin; assay: Cytoskeleton change by rhodamine-phalloidin staining in HTIFs; assay type: cell-based, human; conditions: 100 pM IL-1β
Protocol: as §2

[11] = system: cell modulus; conditions: cited from earlier work
[12] = 20% elongation, 1 Hz for 1 h, day 5

## Nc1ncnc2c1ncn2[C@@H]1O[C@H](COP(=O)(O)OP(=O)(O)OP(=O)(O)O)[C@@H](O)[C@H]1O [ATP, adenosine triphosphate]
[1]
  gel matrix contraction: retard

## GRGDTP
[2]; 100 μg/ml GRGDTP alone
  elastin mRNA level: did not affect
[2]; 100 μg/ml GRGDTP with 100 pM IL-1β
  stimulation of elastin mRNA by IL-1: reduced

## interleukin-1beta [IL-1β]
[3]
  contraction of BATs: reduced
[4]; tested on day 5
  elasticity of BATs: increased
[4]; [12]
  survival of maximum stretch: survived
  time for elongated BATs to recover to original length post stretch: 8 h
[5]
  cell modulus of monolayer HTIFs: reduced
[6]
  expression of Collagen type I: down-regulated
[7]
  modulus of BATs: reduced
[8]
  expression of MMPs 1, 2, 3: up-regulated; also recorded: up-regulation
[2]; 100 pM IL-1β, day 5
  expression of elastin: up-regulated
[9]; 100 pM IL-1β, 2D cultures
  reduction of the message of β-actin: more than 50%
[9]; 100 pM IL-1β, 3D cultures
  reduction of the message of β-actin: more than 50%
[9]; 100 pM IL-1β, day 3, 3D cultures
  message level of β-actin: returned to normal
[9]; 2D cultures, days 1 and 3 (FIG. 14A)
  expression of β-actin: reduced
[10]; 2D cultures
  cells with cytoskeletal structure disrupted: about 20%
[10]; 2D cultures, day 3
  protein level of β-actin: further reduced
[10]; 2D cultures, day 5
  protein level of β-actin: mostly recovered
[10]; 3D BATs, days 1 and 3
  increase of intercellular space at the perpendicular direction of BATs: more than 100%
[10]; 3D bioartificial tendons, day 5
  fluorescence intensity of rhodamine-phalloidin staining compared to control: much lower
[10]; rhodamine-phalloidin staining
  protein level of β-actin: down regulated

## C=C1[C@@H](C)[C@H]2[C@H](Cc3ccccc3)NC(=O)[C@]23[C@H](OC(C)=O)/C=C/[C@@](C)(O)C(=O)[C@@H](C)C/C=C/[C@H]3[C@@H]1O [cytochalasin D]
[11]
  decrease of cell modulus: up to three fold
